# Biological target: T1, C5AR1 (Homo sapiens, UniProt P21730)
# T1 construct: host or cells: CHO-K1
# T1 sequence (P21730 1-350): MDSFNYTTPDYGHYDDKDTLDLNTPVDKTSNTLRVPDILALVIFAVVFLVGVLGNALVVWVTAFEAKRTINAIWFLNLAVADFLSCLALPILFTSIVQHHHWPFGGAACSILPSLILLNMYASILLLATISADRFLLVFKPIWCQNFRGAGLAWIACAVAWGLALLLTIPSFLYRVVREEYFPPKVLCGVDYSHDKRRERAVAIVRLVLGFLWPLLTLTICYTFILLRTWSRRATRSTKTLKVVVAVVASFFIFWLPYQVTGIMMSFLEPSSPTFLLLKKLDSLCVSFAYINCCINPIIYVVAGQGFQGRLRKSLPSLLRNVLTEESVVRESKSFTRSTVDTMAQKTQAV
# Experiment: hC5a DISCO IC50 assay (PathHunter beta-arrestin, antagonist mode)
# Type: cell-based
# Conditions: CHO-K1 C5AR1 beta-arrestin cell line; antagonist vs 1-10 nM C5a agonist; geometric mean values; read-out: C5aR IC50
# How it was run: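 Antagonist added first, then 1-10 nM C5a agonist; cells incubated 1.5 h at 37 °C. Beta-arrestin signal developed with PathHunter detection reagent, 45 min at RT. IC50 in nmol/l from serial antagonist dilutions, reported as geometric mean of several measurements.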
row,Structure (SMILES),IC50 [µM]
1,"COc1cccc2c1n(Cc1ccccc1C(F)(F)F)c(=O)n2C1CC2CC1CN2c1c(C)cccc1F (stereo not drawn) [Example 190, 1-[2-(2-Fluoro-6-methyl-phenyl)-2-aza-bicyclo[2.2.1]hept-5-yl]-4-methoxy-3-(2-trifluoromethyl-benzyl)-1,3-dihydro-benzoimidazol-2-one]",0.118
2,"COc1cccc2c1n(Cc1ccccc1C(F)(F)F)c(=O)n2C1C2CC1CN(C(=O)OC(C)(C)C)C2 (stereo not drawn) [Example 191, 6-[4-Methoxy-2-oxo-3-(2-trifluoromethyl-benzyl)-2,3-dihydro-benzoimidazol-1-yl]-3-aza-bicyclo[3.1.1]heptane-3-carboxylic acid tert-butyl ester]",0.114
3,"COc1cccc2c1n(Cc1cncnc1C(C)C)c(=O)n2C1CCN(c2c(C)cccc2F)CC1 [Example 192, 1-[1-(2-Fluoro-6-methyl-phenyl)-piperidin-4-yl]-3-(4-isopropyl-pyrimidin-5-ylmethyl)-4-methoxy-1,3-dihydro-benzoimidazol-2-one]",0.042
4,"N#Cc1cccc(F)c1N1CC[C@@H](n2c(=O)n(Cc3ccccc3C(F)(F)F)c3c(C(=O)NCCO)cccc32)C1 [Example 193, 1-[(R)-1-(2-Cyano-6-fluoro-phenyl)-pyrrolidin-3-yl]-2-oxo-3-(2-trifluoromethyl-benzyl)-2,3-dihydro-1H-benzoimidazole-4-carboxylic acid (2-hydroxy-ethyl)-amide]",0.632
5,"COCCNC(=O)c1cccc2c1n(Cc1ccccc1C(F)(F)F)c(=O)n2[C@@H]1CCN(c2c(F)cccc2C#N)C1 [Example 194, 1-[(R)-1-(2-Cyano-6-fluoro-phenyl)-pyrrolidin-3-yl]-2-oxo-3-(2-trifluoromethyl-benzyl)-2,3-dihydro-1H-benzoimidazole-4-carboxylic acid (2-methoxy-ethyl)-amide]",1.48
6,"COc1cccc2c1n(Cc1ccccc1C(F)(F)F)c(=O)n2C1C2CC1CN(c1c(C)cccc1F)C2 (stereo not drawn) [Example 197, 1-[3-(2-Fluoro-6-methyl-phenyl)-3-aza-bicyclo[3.1.1]hept-6-yl]-4-methoxy-3-(2-trifluoromethyl-benzyl)-1,3-dihydro-benzoimidazol-2-one]",0.074
7,"COC1CN(c2nccc3c2n(Cc2ccccc2C(F)(F)F)c(=O)n3[C@@H]2CCN(c3c(C)cccc3F)C2)C1 [Example 205, 1-[(R)-1-(2-Fluoro-6-methyl-phenyl)-pyrrolidin-3-yl]-4-(3-methoxy-azetidin-1-yl)-3-(2-trifluoromethyl-benzyl)-1,3-dihydro-imidazo[4,5-c]pyridin-2-one]",0.045
8,"Cc1cccc(F)c1N1CC[C@@H](n2c(=O)n(Cc3ccccc3C(F)(F)F)c3c(N4CCN(C)CC4)nccc32)C1 [Example 206, 1-[(R)-1-(2-Fluoro-6-methyl-phenyl)-pyrrolidin-3-yl]-4-(4-methyl-piperazin-1-yl)-3-(2-trifluoromethyl-benzyl)-1,3-dihydro-imidazo[4,5-c]pyridin-2-one]",2.3
9,"COCCNc1nccc2c1n(Cc1ccccc1C(F)(F)F)c(=O)n2[C@@H]1CCN(c2c(C)cccc2F)C1 [Example 207, 1-[(R)-1-(2-Fluoro-6-methyl-phenyl)-pyrrolidin-3-yl]-4-(2-methoxy-ethylamino)-3-(2-trifluoromethyl-benzyl)-1,3-dihydro-imidazo[4,5-c]pyridin-2-one]",0.508
10,"COc1cccc2c1n(Cc1ccccc1C(F)(F)F)c(=O)n2C1CCN(C(=O)OC(C)(C)C)CC1F (stereo not drawn) [Example 210, 3-Fluoro-4-[4-methoxy-2-oxo-3-(2-trifluoromethyl-benzyl)-2,3-dihydro-benzoimidazol-1-yl]-piperidine-1-carboxylic acid tert-butyl ester]",2.29
11,"COc1cccc2c1n(Cc1ccccc1C(F)(F)F)c(=O)n2C1CCCN(c2c(C)cccc2F)C1 (stereo not drawn) [Example 212, 1-[1-(2-Fluoro-6-methyl-phenyl)-piperidin-3-yl]-4-methoxy-3-(2-trifluoromethyl-benzyl)-1,3-dihydro-benzoimidazol-2-one]",2.08
12,"COc1cccc2c1n(Cc1ccccc1C(F)(F)F)c(=O)n2C1CN(C(=O)OC(C)(C)C)C1 [Example 213, 3-[4-Methoxy-2-oxo-3-(2-trifluoromethyl-benzyl)-2,3-dihydro-benzoimidazol-1-yl]-azetidine-1-carboxylic acid tert-butyl ester]",0.469
13,"COc1cccc2c1n(Cc1ccccc1C(F)(F)F)c(=O)n2C1CCCN(C(=O)OC(C)(C)C)C1 (stereo not drawn) [Example 214, 3-[4-Methoxy-2-oxo-3-(2-trifluoromethyl-benzyl)-2,3-dihydro-benzoimidazol-1-yl]-piperidine-1-carboxylic acid tert-butyl ester]",0.205
14,"COc1cccc2c1n(Cc1ccccc1C(F)(F)F)c(=O)n2C1CCCN(c2c(C)cccc2C)C1 (stereo not drawn) [Example 217, 1-[1-(2,6-Dimethyl-phenyl)-piperidin-3-yl]-4-methoxy-3-(2-trifluoromethyl-benzyl)-1,3-dihydro-benzoimidazol-2-one]",0.158
15,"COc1cccc2c1n(Cc1csc(C(F)(F)F)n1)c(=O)n2[C@@H]1CCN(c2c(C)cccc2F)C1 [Example 218, 1-[(R)-1-(2-Fluoro-6-methyl-phenyl)-pyrrolidin-3-yl]-4-methoxy-3-(2-trifluoromethyl-thiazol-4-ylmethyl)-1,3-dihydro-benzoimidazol-2-one]",0.346

# Now those with a lower IC50, led by results:
row,IC50 [µM],Structure (SMILES)
1,0.034,"COc1cccc2c1n(Cc1ccccc1OC1CC1)c(=O)n2C1CCN(c2c(C)cccc2F)CC1 [Example 209, 3-(2-Cyclopropoxy-benzyl)-1-[1-(2-fluoro-6-methyl-phenyl)-piperidin-4-yl]-4-methoxy-1,3-dihydro-benzoimidazol-2-one]"
2,0.034,"COc1cccc2c1n([C@@H](C)c1ccccc1C(F)(F)F)c(=O)n2C1CCN(c2c(C)cccc2F)C1 (stereo partly drawn) [Example 219, 1-[1-(2-Fluoro-6-methyl-phenyl)-pyrrolidin-3-yl]-4-methoxy-3-[(S)-1-(2-trifluoromethyl-phenyl)-ethyl]-1,3-dihydro-benzoimidazol-2-one]"
3,0.031,"COc1cccc2c1n(Cc1ccccc1C(F)(F)F)c(=O)n2[C@@H]1CCN(c2ccccc2OC(F)(F)F)C1 [Example 201, 4-Methoxy-1-[(R)-1-(2-trifluoromethoxy-phenyl)-pyrrolidin-3-yl]-3-(2-trifluoromethyl-benzyl)-1,3-dihydro-benzoimidazol-2-one]"
4,0.03,"COCCOc1ccccc1N1CC[C@@H](n2c(=O)n(Cc3ccccc3C(F)(F)F)c3c(OC)cccc32)C1 [Example 204, 4-Methoxy-1-{(R)-1-[2-(2-methoxy-ethoxy)-phenyl]-pyrrolidin-3-yl}-3-(2-trifluoromethyl-benzyl)-1,3-dihydro-benzoimidazol-2-one]"
5,0.027,"COc1cccc2c1n(Cc1ccccc1C(F)(F)F)c(=O)n2C1CCN(c2c(C)cccc2F)CC1F (stereo not drawn) [Example 211, 1-[3-Fluoro-1-(2-fluoro-6-methyl-phenyl)-piperidin-4-yl]-4-methoxy-3-(2-trifluoromethyl-benzyl)-1,3-dihydro-benzoimidazol-2-one]"
6,0.027,"COc1cccc2c1n(Cc1ccccc1C(F)(F)F)c(=O)n2C1CN(c2c(C)cccc2F)C1 [Example 215, 1-[1-(2-Fluoro-6-methyl-phenyl)-azetidin-3-yl]-4-methoxy-3-(2-trifluoromethyl-benzyl)-1,3-dihydro-benzoimidazol-2-one]"
7,0.02,"COc1cccc2c1n(Cc1cccnc1C(F)(F)F)c(=O)n2[C@@H]1CCN(c2c(C)cccc2F)C1 [Example 195, 1-[(R)-1-(2-Fluoro-6-methyl-phenyl)-pyrrolidin-3-yl]-4-methoxy-3-(2-trifluoromethyl-pyridin-3-ylmethyl)-1,3-dihydro-benzoimidazol-2-one]"
8,0.019,"COc1cccc2c1n(Cc1ccccc1OC1CC1)c(=O)n2[C@@H]1CCN(c2c(C)cccc2F)C1 [Example 208, 3-(2-Cyclopropoxy-benzyl)-1-[(R)-1-(2-fluoro-6-methyl-phenyl)-pyrrolidin-3-yl]-4-methoxy-1,3-dihydro-benzoimidazol-2-one]"
9,0.013,"COc1cccc2c1n(Cc1nccnc1C(C)C)c(=O)n2[C@@H]1CCN(c2c(C)cccc2F)C1 [Example 189, 1-[(R)-1-(2-Fluoro-6-methyl-phenyl)-pyrrolidin-3-yl]-3-(3-isopropyl-pyrazin-2-ylmethyl)-4-methoxy-1,3-dihydro-benzoimidazol-2-one]"
10,0.012,"COc1cccc2c1n(Cc1ncccc1C(F)(F)F)c(=O)n2C1CCN(c2c(C)cccc2F)CC1 [Example 216, 1-[1-(2-Fluoro-6-methyl-phenyl)-piperidin-4-yl]-4-methoxy-3-(3-trifluoromethyl-pyridin-2-ylmethyl)-1,3-dihydro-benzoimidazol-2-one]"
11,0.006,"COc1cccc2c1n(Cc1cnccc1C(F)(F)F)c(=O)n2[C@@H]1CCN(c2c(C)cccc2F)C1 [Example 203, 1-[(R)-1-(2-Fluoro-6-methyl-phenyl)-pyrrolidin-3-yl]-4-methoxy-3-(4-trifluoromethyl-pyridin-3-ylmethyl)-1,3-dihydro-benzoimidazol-2-one]"
12,0.002,"COc1cccc2c1n(Cc1ncccc1C(F)(F)F)c(=O)n2[C@@H]1CCN(c2c(C)cccc2F)C1 [Example 202, 1-[(R)-1-(2-Fluoro-6-methyl-phenyl)-pyrrolidin-3-yl]-4-methoxy-3-(3-trifluoromethyl-pyridin-2-ylmethyl)-1,3-dihydro-benzoimidazol-2-one]"

# — patent publication US11739070B2, “C5A receptor modulators” (IDORSIA PHARMACEUTICALS LTD, priority 2018, dated 2023)
